Results published in patent US7144919B1, “Polyoxyethylene-polyoxypropylene vitamin E and process for preparation thereof” (priority 2000, dated 2006).

Assay: Anti-oxidation activity: peroxide value of linoleic acid
Settings: sample 0.5% in linoleic acid, incubator 40° C.
Method: The novel POE-POP vitamin E of the present invention was examined for anti-oxidation activity, using linoleic acid. Readily being oxidized, linoleic acid can be used in determining the ability of an antioxidant of interest to inhibit the oxidation of linoleic acid. Used in this test was reagent-grade linoleic acid that comprised linoleic acid 85% and linolenic acid 15%.
POE-POP vitamin E prepared in Example 1, 2 or 3 was added in an amount of 0.5% to linoleic acid while vitamin E, vitamin E acetate, POE (12EO) vitamin E, POE (24 EO)-cholesterol, POE (20 EO) sorbitan monostearate, and POE (12 EO) nonylphenylether were also used as references. These samples were stored in an incubator maintained at 40° C. After two and ten days of incubation, a peroxide value was determined for each sample. In detail, in 1.0 g of each sample was placed in a 250 ml Erlenmeyer flask and dissolved with 10 ml of chloroform. To the solution, 15 ml of glacial acetic acid and 1 ml of saturated potassium iodide solution were added, and a stopper was put in the flask. After being vigorously shaken, the flask was allowed to stand in a dark place for 5 min. Thereafter, the flask was added with 75 ml of distilled water and vigorously shaken. Free iodine was titrated with a 0.01 N sodium thiosulfate solution, using a starch solution as an indicator. The point at which the solution became colorless was regarded as the end point. The peroxide value was calculated as follows:
[formula] wherein, S: Amount of 0.01 N sodium thiosulfate solution consumed by sample (ml) B: Amount of 0.01 N sodium thiosulfate solution consumed in blank test tube (ml) F: Factor of 0.01 N sodium thiosulfate solution

Molecule	Peroxide Values (Day 2)	Peroxide Values (Day 10)
CC(=O)Oc1c(C)c(C)c2c(c1C)CCC(C)(CCC[C@H](C)CCC[C@H](C)CCCC(C)C)O2 (stereo partly shown) [Vitamin E acetate]	26.2	122.3
Vitamin E	21.6	58.9
